Experiments:
[1] = Metabolic stability evaluation, rat liver microsomes; type: in vitro ADME; details: SD, pH 7.4, 1 μM compound, 0.5 mg/mL protein, 37° C.; for microsomal CLint at 1 μM: read-out: rat liver microsome CLint; for half-life at 1 μM: read-out: rat liver microsome t1/2
Method: (§1) Microsomal experiments: human liver microsomes: 0.5 mg/mL, Xenotech; rat liver microsomes: 0.5 mg/mL, Xenotech; coenzyme (NADPH/NADH): 1 mM, Sigma Life Science; magnesium chloride: 5 mM, 100 mM phosphate buffer agent (pH 7.4).
(§2) Preparation of the stock solution: A certain amount of the powder of the example compounds was accurately weighed and dissolved to 5 mM with DMSO.
(§3) Preparation of phosphate buffer (100 mM, pH 7.4): 150 mL of pre-prepared 0.5 M potassium dihydrogen phosphate solution was mixed with 700 mL of pre-prepared 0.5 M dipotassium hydrogen phosphate solution, and the pH of the mixture was adjusted with 0.5 M dipotassium hydrogen phosphate solution to 7.4. It was diluted 5 times with ultrapure water before use, and magnesium chloride was added to obtain a phosphate buffer (100 mM) containing 100 mM potassium phosphate, 3.3 mM magnesium chloride, and a pH of 7.4.
(§4) A solution of NADPH regeneration system (containing 6.5 mM NADP, 16.5 mM G-6-P, 3 U/mL G-6-P D, 3.3 mM magnesium chloride) was prepared and placed on wet ice before use.
(§5) Preparation of stop solution: acetonitrile solution containing 50 ng/mL propranolol hydrochloride and 200 ng/mL tolbutamide (internal standard). 25057.5 μL of phosphate buffer (pH 7.4) was taken into a 50 mL centrifuge tube, 812.5 μL of human liver microsomes was added, and mixed uniformly to obtain a liver microsome dilution with a protein concentration of 0.625 mg/mL. 25057.5 μL of phosphate buffer (pH 7.4) was taken into a 50 mL centrifuge tube, and 812.5 μL of SD rat liver microsomes was added, and mixed uniformly to obtain a liver microsome dilution with a protein concentration of 0.625 mg/mL.
(§6) Incubation of the sample: The stock solutions of the corresponding compounds were diluted to 0.25 mM as working solutions with an aqueous solution containing 70% acetonitrile before use. 398 μL of human liver microsomes or rat liver microsome dilutions were added to 96-well incubation plates (N=2), and 2 μL of 0.25 mM working solutions were added and mixed uniformly, respectively.
(§7) Determination of metabolic stability: 300 μL of pre-cooled stop solution was added to each well of a 96-well deep well plate, which was placed on ice as a stop plate. The 96-well incubation plate and the NADPH regeneration system were placed in a 37° C. water bath, shaken at 100 rpm, and pre-incubated for 5 min. 80 μL of the incubation solution was removed from each well of the incubation plate, added to the stop plate, and mixed uniformly, and 20 μL of the NADPH regeneration system solution was supplemented as a sample at 0 min. Then, 80 μL of the NADPH regeneration system solution was added to each well of the incubation plate to start the reaction and the timing was started. […] 100 μL of the reaction solution was removed at 10, 30, and 90 min of the reaction, respectively, and added to the stop plate, and the reaction was terminated by vortexing for 3 min. The stop plate was centrifuged at 5000×g for 10 min at 4° C. 100 μL of the supernatant was removed into a 96-well plate to which 100 μL of distilled water was previously added, mixed uniformly, and sample analysis was performed by LC-MS/MS.
(§8) Data analysis: The peak areas of the corresponding compounds and the internal standard were detected by LC-MS/MS system, and the ratios of the peak areas of the compounds to the internal standard were calculated.

[2] = Metabolic stability evaluation, human liver microsomes; type: in vitro ADME; details: pH 7.4, 1 μM compound, 0.5 mg/mL protein, 37° C.; for microsomal CLint at 1 μM: read-out: human liver microsome CLint; for half-life at 1 μM: read-out: human liver microsome t1/2
Method: as §1, §2, §3, §4, §5, §6, §7, §8

SMILES | microsomal CLint at 1 μM [1] | half-life at 1 μM [1] | microsomal CLint at 1 μM [2] | half-life at 1 μM [2]
[2H]C1([2H])CC([2H])([2H])[C@@]([2H])(c2cc(F)ccc2F)N1c1ccn2ncc(NC(=O)N3CC[C@H](O)C3)c2n1 [Compound L-7, (S)—N-(5-((R)-2-(2,5-difluorophenyl)pyrrolidin-1-yl-2,3,3,5,5-d2)pyrazolo[1,5-a]pyrimidin-3-yl)-3-hydroxypyrrolidine-1-carboxamide] | 15.8 µL/min/mg | 1.46 h | 20.6 µL/min/mg | 1.12 h
[2H]C1([2H])C[C@H](O)C([2H])([2H])N1C(=O)Nc1cnn2ccc(N3CCC[C@@H]3c3cc(F)ccc3F)nc12 [Compound L-1, (S)—N-(5-((R)-2-(2,5-difluorophenyl)pyrrolidin-1-yl)-pyrazolo[1,5-a]pyrimidine-3-yl)-3-hydroxypyrrolidine-2,2,5,5-d4-1-carboxamide] | 19.2 µL/min/mg | 1.2 h | 18.2 µL/min/mg | 1.27 h
O=C(Nc1cnn2ccc(N3CCC[C@@H]3c3cc(F)ccc3F)nc12)N1CC[C@H](O)C1 [LOXO-101, (S)—N-(5-((R)-2-(2,5-difluorophenyl)-pyrrolidin-1-yl)pyrazolo[1,5-a]pyrimidin-3-yl)-3-hydroxypyrrolidine-1-carboxamide, reference compound] | 31.7 µL/min/mg | 1.06 h | 21.3 µL/min/mg | 1.08 h
[2H]C1([2H])C[C@H](O)C([2H])([2H])N1C(=O)Nc1cnn2ccc(N3CCC([2H])([2H])C3([2H])c3cc(F)ccc3F)nc12 (stereo in doubt) [Compound L-3, (S)—N-(5-((R)-2-(2,5-difluorophenyl)pyrrolidin-1-yl-2,3,3-d3)-pyrazolo[1,5-a]pyrimidin-3-yl)-3-hydroxypyrrolidine-2,2,5,5-d4-1-carboxamide] | 16.8 µL/min/mg | 1.38 h | 19.1 µL/min/mg | 1.21 h
[2H]C1([2H])C[C@H](c2cc(F)ccc2F)N(c2ccn3ncc(NC(=O)N4CC[C@H](O)C4)c3n2)C1 [Compound L-4, (S)—N-(5-((R)-2-(2,5-difluorophenyl)pyrrolidin-1-yl-4,4-d2)pyrazolo[1,5-a]pyrimidin-3-yl)-3-hydroxypyrrolidine-1-carboxamide] | – | – | 21 µL/min/mg | 1.1 h

Source: patent US11453672B2, “Substituted pyrazolo[1,5-a]pyrimidines as tropomyosin receptor kinase inhibitors” (SHENZHEN TARGETRX, INC., priority 2017, dated 2022)
